The values below come from US4803272A (priority 1987, dated 1989).

As a reminder, the pIC50 is the IC50 on a negative log10 scale, so that one unit is a factor of ten. The low end stands for a large IC50, the high end for a small IC50.

Data set [1] concerns vesicular stomatitis virus [VSV], New Jersey strain. The class given is cell-based. Particulars: without interferon; Maden-Darby bovine kidney cells.
In data set [2] the target is T1, spermidine synthase (Homo sapiens, UniProt P19623).
T1 sequence (P19623 1-302): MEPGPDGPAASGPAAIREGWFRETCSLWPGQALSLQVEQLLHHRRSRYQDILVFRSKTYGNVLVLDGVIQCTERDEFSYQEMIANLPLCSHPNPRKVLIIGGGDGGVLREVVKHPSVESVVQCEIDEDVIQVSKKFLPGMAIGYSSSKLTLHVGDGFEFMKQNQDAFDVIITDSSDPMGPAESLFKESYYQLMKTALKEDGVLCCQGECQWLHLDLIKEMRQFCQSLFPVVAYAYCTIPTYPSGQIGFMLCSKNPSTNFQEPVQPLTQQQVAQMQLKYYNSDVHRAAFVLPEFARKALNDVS
Nature of the data set: Spermidine synthase inhibiting activity. The class given is biochemical. Particulars: pH 8.2, 37°, 10 min, 20 μM decarboxylated S-adenosyl-L-methionine.
Procedure: Reactions were initiated by the addition of enzyme and incubated for 10 minues at 37° . The reactions were stopped by the additions of 5 μL of 100 mM spermidine and 5 μL of a slurry of 160 mg/mL of Darco G60 in water. The mixtures were centrifuged at 10,000×g for 2 minutes and a 40 μL aliquot of the supernate counted. Blank reactions were run using zero incubation time, or omitting enzyme or putrescine.
This assay made use of the adsorption of unreacted substrate, decarboxylated S-adenosyl-L-methionine, on charcoal while leaving the product polyamine in solution.

In data set [3] the test system is human alpha [leucocyte] interferon. The following applies: mdbk cells.
The subject of data set [4] is B16 melanoma cells. Particulars: DFMO in combination with interferon; cited from earlier work.
Data set [5] concerns human gamma interferon. It is filed as cell-based.
Data set [6] relates to human beta interferon. It is filed as cell-based.

The structures appear in SMILES notation. pIC50: −log10 of the molar value. Where a name gives a salt, the structure may show the parent alone.

Take `NCCCCCC(CCN)SC[C@@H]1C[C@H](n2cnc3c(N)ncnc32)[C@@H](O)[C@H]1O` (relative stereo) [Example 3, 1,t-(9-adenyl)-2,c-3,c-dihydroxy-4,t-[2-thia-3-(2-aminoethyl)-8-aminooctyl]cyclopentane hydrochloride]: the “antiviral activity of compound by itself against VSV” value in data set [1] was “no antiviral activity”. The pIC50 in data set [2] was 5.70. Also, in data set [3], the “potentiation of human alpha interferon” value turned out to be 2 ×.

With `NCCC[C@](N)(C(=O)O)C(F)F` [DFMO, α-difluoromethyl ornithine], the “suppression of tumor growth of B16 melanoma cells” value in data set [4] is “total or near total suppression”.

For `NCCCCCC(CCN)SCCOCn1cnc2c(N)ncnc21` (stereo not shown) [Example 1, 9-[2-oxa-5-thia-6-(2-aminoethyl)-11-aminoundecyl]-6-aminopurine], in data set [5], the “potentiation of human gamma interferon” value came to 4 ×. Also, the “antiviral activity of compound by itself against VSV” value in data set [1] is on record as “no antiviral activity”. Further, the “potentiation of human beta interferon” value in data set [6] was determined as 16 ×. In addition, in data set [2], the negative logarithm of the IC50 (pIC50) is approximately 4.00. Moreover, in data set [3], the “potentiation of human alpha [leucocyte] interferon” value came to 2 × and the “potentiation of human alpha interferon” value is 8 ×.
